Laboratory results taken from PMC11571108, “Targeting PfCLK3 with Covalent Inhibitors: A Novel Strategy for Malaria Treatment” (Journal of Medicinal Chemistry, 2024).
Like-named read-outs stand apart in the source and are kept apart here.

Assays:
[1] = tested on: PfCLK3 kinase domain (334–699); assay: Intact protein mass spectrometry, covalent adduct formation; format: binding, Plasmodium falciparum; details: for Covalent Adduct Formation (%): pH 7.4, 4 h incubation
Description: Covalent adduct formation was investigated by intact protein mass spectrometry.

[2] = tested on: asexual P. falciparum 3D7 parasites; assay: Time of inhibition assays in 3D7 parasites; format: cell-based; details: Plasmodium falciparum, read at 72 hpi
Description: Synchronised parasites between 0.4 and 0.6% parasitemia at 4% hematocrit were plated in 384 well plates. To early ring stage plate (0−) rings, serially diluted drugs were added to the parasites in triplicate and incubated as plate 1. At 16 hpi, late ring stage parasites were exposed to the same drug concentrations previously diluted as in plate 1. This was repeated for 24 hpi plates. […] As described previously, the plates were thawed at RT for about an hour before they were SyBr green stained in lysis buffer.

| SMILES | covalent adduct formation (observed or not) ([1]; pH 7.4, 4 h) | Covalent Adduct Formation (%) [1] | EC50 ([2]; dosed at 16 hpi, read-out: pEC50 (3D7) 16 hpi (converted)) | EC50 ([2]; dosed at 24 hpi, read-out: pEC50 (3D7) 24 hpi (converted)) | EC50 ([2]; dosed at early-ring stage (0 h), read-out: pEC50 (3D7) 0-3 hpi (converted)) | covalent adduct formation (observed or not) ([1]; pH raised to 9) |
| --- | --- | --- | --- | --- | --- | --- |
| COc1ccc(CN2CCN(C(=O)/C=C/CN(C)C)CC2)cc1-c1cc2c(-c3ccc(C(=O)O)cc3)ccnc2[nH]1 [Compound 3, 4-{2-[5-({4-[(2E)-4-(dimethylamino)but-2-enoyl]piperazin-1-yl}methyl)-2-methoxyphenyl]-1H-pyrrolo[2,3-b]pyridin-4-yl}benzoic Acid] | no adduct formation | 0% | – | – | – | – |
| C[C@@H]1CC[C@H]2[C@@H](C)C(=O)O[C@@H]3O[C@@]4(C)CC[C@@H]1[C@]32OO4 [Artemisinin] | – | – | 112 nM | 95.5 nM | 13.5 nM | – |
| C=CC(=O)N1CCN(Cc2ccc(OC)c(-c3cc4c(-c5ccc(C(=O)O)cc5)ccnc4[nH]3)c2)CC1 [Compound 2, 4-[2-(2-methoxy-5-{[4-(prop-2-enoyl)piperazin-1-yl]methyl}phenyl)-1H-pyrrolo[2,3-b]pyridin-4-yl]benzoic Acid] | no covalent adduct formation was observed | 0% | – | – | – | adduct formation was observed |
